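Protocol summary: plate cells (96-well), add compound at 5 concentrations, incubate 48 h, interpolate endpoints linearly. GI50 marks 50% less growth.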 Active and inactive are the calls of the source. Rule as the data show it: active = GI50 up to about 1.1 µM and inactive = higher.
Columns and labels:
Assay in all cases: DTP human tumour cell line panel, 48 h
[1] = tested on: SF-295
[2] = tested on: OVCAR-5
[3] = tested on: SNB-19
[4] = tested on: HCC 2998
[5] = tested on: MDA-N
[6] = tested on: HOP-62
[7] = tested on: SN12C
[8] = tested on: HT-29
[9] = tested on: OVCAR-8
[10] = tested on: OVCAR-4
[11] = tested on: CAKI-1
[12] = tested on: SK-MEL-5
[13] = tested on: A549
[14] = tested on: U-251
[15] = tested on: NCI-H522
[16] = tested on: SF-539
[17] = tested on: NCI/ADR-RES
[18] = tested on: COLO 205
[19] = tested on: HCT-116
[20] = tested on: RPMI-8226

Measured: GI50

CC(C)(C)C1=C(Br)C(Br)(C(C)(C)C)OP1(=O)c1ccccc1 (stereo not given)
inactive: [1] > 100 µM | [2] > 100 µM | [3] > 100 µM | [4] > 100 µM | [5] > 100 µM | [6] > 100 µM | [7] > 100 µM | [8] > 100 µM | [9] > 100 µM | [10] > 100 µM | [11] > 100 µM | [12] > 100 µM | [13] > 100 µM | [14] > 100 µM | [15] > 100 µM | [16] > 100 µM | [17] > 100 µM | [18] > 100 µM | [19] > 100 µM

Cc1ccc(NC(=O)/C(=N/N(C)C)C(C2OC(=O)c3ccccc32)[N+](=O)[O-])cc1 (stereo not given)
inactive: [1] > 100 µM | [2] > 100 µM | [4] > 100 µM | [5] > 100 µM | [6] > 100 µM | [7] > 100 µM | [8] > 100 µM | [9] > 100 µM | [10] > 100 µM | [11] > 100 µM | [12] > 100 µM | [13] > 100 µM | [14] > 100 µM | [16] > 100 µM | [17] > 100 µM | [19] > 100 µM | [20] > 100 µM

COC(=O)C1=C(O)c2ccc(Cl)cc2S(=O)(=O)N1C
inactive: [1] 60.5 µM | [2] > 100 µM | [3] 60.4 µM | [4] > 100 µM | [5] > 100 µM | [6] > 10 µM | [7] > 100 µM | [8] > 100 µM | [10] 45.1 µM | [11] > 100 µM | [12] 97.1 µM | [13] 44.4 µM | [14] 81.3 µM | [15] 34.8 µM | [17] 19.1 µM | [18] > 100 µM | [19] > 100 µM | [20] 80.7 µM

CC(=O)O[C@H]1C[C@@H](OC(C)=O)[C@@](C)(O)[C@@H]2[C@@H](OC(C)=O)[C@@]3(O)[C@H](/C=C(/CCl)[C@H]4O[C@H]4[C@@H](OC(C)=O)[C@@]12C)OC(=O)[C@@H]3C
inactive: [1] 17.7 µM | [2] > 25 µM | [3] > 25 µM | [4] > 25 µM | [5] 12 µM | [6] > 25 µM | [7] > 25 µM | [8] > 25 µM | [9] > 25 µM | [10] > 25 µM | [11] > 25 µM | [12] 22.3 µM | [13] > 25 µM | [14] > 25 µM | [15] > 25 µM | [17] > 25 µM | [18] > 25 µM | [19] > 25 µM | [20] 9.89 µM

CC1(C)Oc2ccc3c(=O)c4ccccc4oc3c2C1C(=O)O (stereo not given)
inactive: [1] > 100 µM | [2] > 100 µM | [4] > 100 µM | [5] > 100 µM | [6] > 100 µM | [7] > 100 µM | [8] > 100 µM | [9] > 100 µM | [10] > 100 µM | [11] > 100 µM | [12] > 100 µM | [13] > 100 µM | [14] > 100 µM | [15] > 100 µM | [16] > 100 µM | [17] > 100 µM | [18] > 100 µM | [19] > 100 µM

CC(CC(=O)O)(CC(=O)O)c1ccccc1
inactive: [1] > 100 µM | [2] > 100 µM | [3] > 100 µM | [4] > 100 µM | [5] > 100 µM | [6] > 100 µM | [7] > 100 µM | [8] > 100 µM | [9] > 100 µM | [10] > 100 µM | [11] > 100 µM | [12] > 100 µM | [13] > 100 µM | [14] > 100 µM | [15] > 100 µM | [17] > 100 µM | [18] > 100 µM | [19] > 100 µM | [20] > 100 µM

CCOC(=O)c1cn(-c2ccccc2)c(=S)n2c1nc1ccccc12
inactive: [1] 71.8 µM | [2] > 100 µM | [3] > 66.2 µM | [4] > 52.7 µM | [5] 41.1 µM | [6] 53.2 µM | [7] > 70.1 µM | [8] 30.5 µM | [9] 24.4 µM | [10] 37.4 µM | [11] 49 µM | [12] 23.1 µM | [13] 42.9 µM | [14] 58.5 µM | [16] 32.7 µM | [17] 25.5 µM | [18] 30.3 µM | [19] 42.6 µM | [20] 18.1 µM

N#CCCCCC12C3C(=O)N(c4ccccc4)C(=O)C3ON1O[C@@H]1C(=O)N(c3ccccc3)C(=O)[C@@H]12 (stereo not given in full)
inactive: [1] > 100 µM | [2] > 100 µM | [3] > 100 µM | [4] > 100 µM | [5] > 100 µM | [6] > 100 µM | [7] > 100 µM | [8] > 100 µM | [9] > 100 µM | [10] > 100 µM | [11] > 100 µM | [12] > 100 µM | [13] > 100 µM | [14] > 100 µM | [15] > 100 µM | [16] > 100 µM | [17] > 100 µM | [18] > 100 µM

CCN(CC)C(=O)N[C@@H](Cc1ccccc1)C(=O)NC
inactive: [1] > 100 µM | [2] > 100 µM | [3] > 100 µM | [4] > 100 µM | [5] > 100 µM | [6] > 100 µM | [7] > 100 µM | [8] > 100 µM | [9] > 100 µM | [10] > 100 µM | [11] > 100 µM | [12] > 100 µM | [13] > 100 µM | [14] > 100 µM | [15] > 100 µM | [17] > 100 µM | [18] > 100 µM | [19] > 100 µM | [20] > 100 µM

CCOC(=O)CCC(NC(=O)c1ccc(Nc2nc3ccccc3nc2-c2cccs2)cc1)C(=O)OCC (stereo not given)
inactive: [1] 19.4 µM | [2] > 100 µM | [3] 29.2 µM | [4] 33.9 µM | [5] 20.6 µM | [6] > 100 µM | [7] 22.1 µM | [8] 25.6 µM | [9] 20.8 µM | [10] 23.9 µM | [11] 29.8 µM | [12] 15.2 µM | [13] 63.2 µM | [14] 27.4 µM | [16] 32.7 µM | [17] 21.3 µM | [18] 25.2 µM | [19] 28.4 µM | [20] 7.53 µM

O=C1C(Cl)=C(OCCCCl)C(=O)c2c(O)ccc(O)c21
inactive: [1] 6.17 µM | [2] 12.4 µM | [3] 18.3 µM | [4] 14.8 µM | [5] 1.52 µM | [6] 8.99 µM | [7] 2.26 µM | [8] 2.03 µM | [9] 7.06 µM | [10] 2.74 µM | [11] 1.21 µM | [12] 1.73 µM | [13] 6.4 µM | [14] 5.9 µM | [16] 3.01 µM | [17] 3.69 µM | [18] 1.53 µM | [19] 1.85 µM | [20] 1.37 µM

C=C1C(=O)C([Si](C)(C)C)=C2C=C(C)C3(CC3)C12C (stereo not given)
inactive: [1] 30.4 µM | [2] > 100 µM | [3] > 100 µM | [4] 38.9 µM | [5] 22.7 µM | [6] > 100 µM | [7] 40.9 µM | [8] 18.2 µM | [9] 57.4 µM | [10] 25.6 µM | [11] 35.6 µM | [12] 19.4 µM | [13] 24.2 µM | [14] 28.2 µM | [15] 14 µM | [17] 13.7 µM | [18] 14.2 µM | [19] 37.5 µM | [20] 3.88 µM

CCCCCC(=O)OCC1(CO)C/C(=C/CC(C(C)C)C(C)C)C(=O)O1 (stereo not given)
inactive: [1] 51.1 µM | [2] > 75 µM | [3] 63.1 µM | [4] 59.7 µM | [5] 34 µM | [6] 38.7 µM | [7] 30.5 µM | [8] 38.6 µM | [9] 21.9 µM | [10] 53.2 µM | [11] 19.9 µM | [12] 48.8 µM | [13] 51.1 µM | [14] 44.4 µM | [15] 13.7 µM | [17] > 75 µM | [18] 26.5 µM | [19] 27.7 µM

O=C(c1nsc(Cl)c1Cl)N1CCCCC1
inactive: [1] > 100 µM | [2] > 100 µM | [3] 82.8 µM | [4] > 100 µM | [5] > 100 µM | [6] > 100 µM | [7] > 100 µM | [8] > 100 µM | [9] > 100 µM | [10] > 100 µM | [11] > 100 µM | [12] > 100 µM | [13] > 100 µM | [14] > 100 µM | [16] > 100 µM | [17] > 100 µM | [18] > 100 µM | [19] > 100 µM | [20] > 100 µM

Reference: ChEMBL document CHEMBL1201862, “PubChem BioAssay data set” (2004)
